Data on two compounds can be found in patent US9393236B2, “Use of 4-cyclopropylmethoxy-N-(3,5-dichloro-1-oxido-4-pyridin-4-yl)-5-(methoxy)pyridine-2-carboxamide in the treatment of cranial traumas” (SANOFI, priority 2007, dated 2016).

The test system of data set [1] is ferret. Put plainly: Evaluation of the emetic effects in the ferret. It counts as in vivo. How it is done: The emetic capacity of 4-cyclopropylmethoxy-N-(3,5-dichloro-1-oxidopyridin-4-yl)-5-(methoxy)pyridine-2-carboxamide was evaluated in the ferret. Two groups of ferrets were used, the first receiving the carrier (PEG200) and the second receiving 4-cyclopropyl methoxy-N-(3,5-dichloro-1-oxidopyridin-4-yl)-5-(methoxy)pyridine-2-carboxamide in solution in the carrier (PEG 200), by oral gavage. The animals were observed continually for the 2 hours following the administration, and then every hour up to 6 hours after the administration. The clinical signs (in particular retching and vomiting) were noted.
The emetic capacity of (R)-(−)-rolipram was evaluated in the ferrets. Two groups of ferrets were used, the first being given the carrier (PEG200) and the second being given the (((4R)-4-[3-(cyclopentyloxy)-4-methoxyphenyl]pyrrolidine-2-one)) in solution in the carrier (PEG 200), by oral gavage, at doses of 0.05 mg/kg and of 0.1 mg/kg. The animals were observed continually for the 2 hours following administration, and then once an hour up to 6 hours after the administration. The clinical signs were noted.

Data set [2] concerns rats with parietal cranial trauma. Put plainly: CFR (Conditioned Freezing Response) test after a parietal cranial trauma. It counts as in vivo, rat (Sprague-Dawley). The settings on record: rat; 0.05 mg/kg i.v. 4 h after surgery (D0), then 0.1 mg/kg/day per os twice a day D1-D21; CFR measured D23/D24; p<0.001 vs traumatized animal given the carrier. As to the method: After general anaesthesia, rats (Sprague-Dawley, male, 150-200 g, Charles River) are placed in a stereotaxis frame. A craniotomy is performed at the level of the parietal cortex (AP: 3.5 mm; LAT: 7 mm and 3.5 mm below the cranial roof). A catheter connected to an HPLC pump is placed in contact with the dura mater and a pressure of 0.073 Kpsi is exerted.
The animals are treated intravenously 4 h after the surgery (D0) by administering a solution of 4-cyclopropylmethoxy-N-(3,5-dichloro-1-oxidopyridin-4-yl)-5-(methoxy)pyridine-2-carboxamide in the carrier (PEG200/physiological saline (NaCl 0.9%)), at the dose of 0.05 mg/kg.
Starting from D1 and up to D21 post-surgery, the animals are treated with a solution containing 4-cyclopropylmethoxy-N-(3,5-dichloro-1-oxidopyridin-4-yl)-5-(methoxy)pyridine-2-carboxamide in the carrier (methylcellulose (MC) (0.6%)+tween-80 (0.5%) in water) per os, twice a day, at the total daily dose of 0.1 mg/kg.
The deficiency in the CFR was measured at days D23 and D24 post-surgery.
At D23, the animal is placed in a box, where it receives an electric shock of 0.6 mA for 1.5 s.
At D24, the animal is again placed in the same box and the duration of immobility is measured for 3 minutes.

[3] abbreviates: 0.1 mg/kg by oral gavage in PEG200, observed up to 6 hours.

SMILES strings stand for the structures.

As to `COc1cnc(C(=O)Nc2c(Cl)c[n+]([O-])cc2Cl)cc1OCC1CC1` [4-Cyclopropylmethoxy-N-(3,5-dichloro-1-oxidopyridin-4-yl)-5-(methoxy)pyridine-2-carboxamide], in data set [1] (setting [3]), the “emetic effects (retching and vomiting)” value is recorded as “induces no retching or vomiting”. Further, the “inhibition of the deficiency (immobility time in CFR) induced by a cranial trauma” value in data set [2] worked out at 100%.

On to `COc1ccc([C@@H]2CNC(=O)C2)cc1OC1CCCC1` [(R)-(−)-rolipram, (4R)-4-[3-(cyclopentyloxy)-4-methoxyphenyl]pyrrolidine-2-one], for which the “emetic effects (retching and vomiting)” value in data set [1] (0.05 mg/kg by oral gavage in PEG200, observed up to 6 hours) is reported as “induces vomiting”; in data set [1] (setting [3]), “induces vomiting”.
